# Measured values taken from patent US12692254B2, “Benzimidazole inhibitors of PAD enzymes” (BRISTOL-MYERS SQUIBB COMPANY, priority 2018, dated 2026).
# Target: human PAD4 (hPAD4) (Homo sapiens, UniProt Q9UM07)
# Test: RFMS human PAD4 functional assay (rapid-fire mass spectrum)
# Type: biochemical
# Conditions: 5 nM hPAD4 enzyme, 250 μM BAEE, 50 μM Calcium; 30 min preincubation, 90 min reaction at 37° C.
# Procedure, shortened: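 PAD4 (10 nM) preincubated 30 min with compound (top final 50 μM), then BAEE substrate added in pH 7.5 HEPES buffer with DTT, 50 μM calcium, TPEN; 90 min at 37° C. After TCA quench, citrulline derivatized with phenyl glyoxal (4 mM final, 30 min, 37° C) and quantified by RapidFire MS against internal standard.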
# Sequence of human PAD4 (hPAD4) (Q9UM07 whole entry): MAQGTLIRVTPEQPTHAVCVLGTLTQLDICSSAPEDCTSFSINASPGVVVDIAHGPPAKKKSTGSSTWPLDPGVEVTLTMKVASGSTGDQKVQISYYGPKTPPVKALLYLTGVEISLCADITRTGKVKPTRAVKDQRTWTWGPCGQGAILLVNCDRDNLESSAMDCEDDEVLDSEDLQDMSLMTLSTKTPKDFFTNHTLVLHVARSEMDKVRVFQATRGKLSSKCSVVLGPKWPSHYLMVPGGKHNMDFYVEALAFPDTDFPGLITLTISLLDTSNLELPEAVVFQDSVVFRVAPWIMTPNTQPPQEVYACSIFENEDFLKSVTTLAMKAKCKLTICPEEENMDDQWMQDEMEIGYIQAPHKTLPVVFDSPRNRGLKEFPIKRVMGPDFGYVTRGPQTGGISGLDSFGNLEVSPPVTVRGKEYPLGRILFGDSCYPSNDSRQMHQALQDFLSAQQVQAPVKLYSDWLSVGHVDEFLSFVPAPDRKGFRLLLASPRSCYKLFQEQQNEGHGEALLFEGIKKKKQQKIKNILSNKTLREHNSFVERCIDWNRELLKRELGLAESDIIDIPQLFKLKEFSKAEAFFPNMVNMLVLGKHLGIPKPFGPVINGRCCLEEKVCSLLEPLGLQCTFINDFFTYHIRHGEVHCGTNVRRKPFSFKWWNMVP
row,SMILES,IC50
1,"COc1cc(C(=O)N2C[C@H]3CC[C@@H]2[C@@H]3N)cc2nc(-c3cc4cccnc4n3CC3CC3)n(CC3CN(C(=O)c4ccc(Cl)nc4)C3)c12 [Example 120, (1R,4R,7R)-2-(1-{[1-(6-chloropyridine-3-carbonyl)azetidin-3-yl]methyl}-2-[1-(cyclopropylmethyl)-1H-pyrrolo[2,3-b]pyridin-2-yl]-7-methoxy-1H-1,3-benzodiazole-5-carbonyl)-2-azabicyclo[2.2.1]heptan-7-amine]",73 nM
2,"N[C@@H]1[C@@H]2CC[C@H]1N(C(=O)c1cc(Cl)c3c(c1)nc(-c1cc4cccnc4n1CC1CC1)n3CC1CN(C(=O)c3ccccc3)C1)C2 [Example 89, (3-((5-((1R,4R,7R)-7-amino-2-azabicyclo[2.2.1]heptane-2-carbonyl)-7-chloro-2-(1-(cyclopropylmethyl)-1H-pyrrolo[2,3-b]pyridin-2-yl)-1H-benzo[d]imidazol-1-yl)methyl)azetidin-1-yl)(phenyl)methanone]",41 nM
3,"COc1cc(C(=O)N2CC3CCC2[C@@H]3N)cc2nc(-c3cc4cccnc4n3CC3CC3)n(CC3CCN(c4ncccn4)C3)c12 (stereo in doubt) [Example 231, (1R,4R,7R)-2-{2-[1-(cyclopropylmethyl)-1H-pyrrolo[2,3-b]pyridin-2-yl]-7-methoxy-1-{[(3S)-1-(pyrimidin-2-yl)pyrrolidin-3-yl]methyl}-1H-1,3-benzodiazole-5-carbonyl}-2-azabicyclo [2.2.1]heptan-7-amine]",203 nM
4,"COc1cc(C(=O)N2CCC[C@@H](N)C2)cc2nc(-c3cc4ccccc4n3CC3CC3)n(CC3CN(C(=O)c4ccc(C#N)cc4)C3)c12 [Example 180, 4-[3-({5-[(3R)-3-aminopiperidine-1-carbonyl]-2-[1-(cyclopropylmethyl)-1H-indol-2-yl]-7-methoxy-1H-1,3-benzodiazol-1-yl}methyl)azetidine-1-carbonyl]benzonitrile]",95 nM
5,COc1cc(C(=O)N2CC3CCC2[C@@H]3N)cc2nc(-c3cc4cccnc4n3CC3CC3)n(CC3CCN(c4ccnc(C)n4)CC3)c12 (stereo partly shown) [Example 219],67 nM
6,"N[C@@H]1C2CCC1N(C(=O)c1ccc3c(c1)nc(-c1cc4ccccc4n1CC1CC1)n3CC1CN(C(=O)c3ccccc3)C1)C2 (stereo partly drawn) [Example 170, (1R,4R,7R)-2-{1-[(1-benozylazetidin-3-yl)methyl]-2-[1-(cyclopropylmethyl)-1H-indol-2-yl]-1H-1,3-benzodiazol-5-carbonyl}-2-azabicyclo[2.2.1]heptan-7-amine]",35 nM

# Next, values leading:
row,IC50,SMILES
1,2050 nM,"COc1cc(C(=O)N2CC3CCC2[C@@H]3N)cc2nc(-c3csc4ccc(Cl)cc34)n(CC3CN(c4cncc(C(N)=O)c4)C3)c12 (stereo partly drawn) [Example 322, 5[3-({5-[(1R,4R,7R)-7-amino-2-azabicyc1o[2.2.1]heptane-2-carbonyl]-2-(5-ch1oro-1-benzothiophen-3-yl)-7-methoxy-1H-1,3-benzodiazol-1-yl}methyl)azetidin-1-yl]pyridine-3-carboxamide]"
2,31 nM,"COc1cc(C(=O)N2CC3CCC2[C@@H]3N)cc2nc(-c3cc4ccccc4n3CC3CC3)n(CC3(F)CN(C(=O)c4ccccc4)C3)c12 (stereo partly drawn) [Example 432, (7R)-2-{1-[(1-benzoyl-3-fluoroazetidin-3-yl)methyl]-2-[1-(cyclopropylmethyl)-1H-indol-2-yl]-7-methoxy-1H-1,3-benzodiazole-5-carbonyl}-2-azabicyclo[2.2.1]heptan-7-amine]"
3,1190 nM,COc1cc(C(=O)N2CC3CCC2[C@@H]3N)cc2nc(-c3cccn3CC3CC3)n(CC3CN(c4cncc(C#N)c4)C3)c12 (stereo partly shown) [Example 317]
4,129 nM,"COc1cc(C(=O)N2CC3CCC2[C@@H]3N)cc2nc(-c3cc4ccccc4n3CC3CC3)n(CC3CC(=O)N(C)C3)c12 (stereo partly drawn) [Example 473, 4-({5-[(7R)-7-amino-2-azabicyclo[2.2.1]heptane-2-carbonyl]-2-[1-(cyclopropylmethyl)-1H-indol-2-yl]-7-methoxy-1H-1,3-benzodiazol-1-yl}methyl)-1-methylpyrrolidin-2-one]"
